In patent US20040242678A1, “Apolipo protein e secretion promoters” (priority 2001, published 2004):

Key:
[1] = system: foamed C57BL/6J mouse-derived macrophages; assay: Intracellular cholesterol-removing effect in foamed macrophages (enzymatic total cholesterol measurement); format: cell-based; conditions: for Cholesterol Reduction (%) Means: 24 hours, relative to the vehicle (0 μmol/L = 100.0)
Description: (§1) 4.05 w/v % thioglycollate-elicited intraperitoneally exuded cells were prepared from C57BL/6J and ApoE-deficient mice. The cells were inoculated on 12-well plate at 1.0×10^6 cells/well. The cells were cultured at 37° C. under 5 vol % CO2. After 3 hours of culture, the culture medium was changed to a fresh one to remove inadhesive cells, leaving mouse-peritoneal macrophages in each of the wells. Next day, the mouse-peritoneal macrophages were cultured in a medium containing 50 μg of protein per mL of acetylated LDL for 24 hours to form foam cells.
(§2) To the wells containing the foamed C57BL/6J mouse-derived macrophages, 4,6-di-t-butyl-2,2-dipentyl-5-hydroxy-2,3-dihydrobenzofuran (BO-653) was added to final concentrations of 0, 3 and 10 μmol/L. After 24 hours of culture, the supernatants were collected to prepare samples for SDS-PAGE.
On the other hand, the foamed macrophages which were cultured in the presence of BO-653 and harvested at the same time as the collection of the supernatants were extracted with a mixed solvent of hexane/2-propanol (3:2 v/v) to obtain lipids. Then, the total amount of cholesterol in the lipids was measured using the enzymatic method described by Yoshiki Kawabe et al., “Oxidation-Induced Aggregation of Rabbit Low-Density Lipoprotein by Azo Initiator”, Achieves of Biochemistry and Biophysics 310, 489-496 (1994). We regarded the total amount of cholesterol as intracellular cholesterol content of the macrophages.

[2] = system: foamed C57BL/6J mouse-derived macrophages; assay: ApoE secretion-promoting effect in foamed mouse peritoneal macrophages (Western blotting of supernatants); format: cell-based; conditions: BO-653 added at 3 and 10 μmol/L, 24 hours of culture, anti-mouse ApoE antibody, FIG. 1
Description: as §1, §2
The samples were subjected to 10 w/v % SDS-PAGE. Following the SDS-PAGE, the bands were transferred onto nitrocellulose papers using semi-drying method and blocked with TBS containing 10 w/v % skim milk and 0.1 vol % Tween-20. Rabbit anti-mouse ApoE-antibody (#K23100R, BIODESIGN) and peroxidase-labeled anti-rabbit IgG antibody (#7071-1, Cell Signaling TECHNOLOGY) were used as the first and secondary antibodies, respectively. ApoE was detected using chemoluminescence method (PIERCE).

C57BL/6J mice = assay: ApoE increasing effect in mouse serum (SDS-PAGE of lipoprotein-containing fractions); format: in vivo; conditions: high fat diet containing 0.65% BO-653 for 5 weeks versus high fat diet with no BO-653, FIG. 2
Description: Seven-week-old C57BL/6J mice were divided into first group of three and second group of four. The animals of the first and second groups were fed a high fat diet containing no BO-653 and 0.65% BO-653, respectively. After 5 weeks of diet initiation, the animals were anesthetized with ether and their blood was individually drawn from vena cava descendens. Serum samples were prepared from the drawn blood and 100 μL of each of the samples was placed into a tube. To the tube, 900 μL of sodium bromide solution having 1.256 density was added, and the tube was centrifuged in TL-100 desk type ultracentrifuge at 100,000 rpm for 20 hours using TLA-100.2 rotor. Lipoprotein-containing fraction thus obtained was collected and treated with 10 w/v % trichloroacetic acid solution. The precipitate was collected and dissolved into 80 μL of solution for SDS-PAGE. 10 μL of the solution was subjected to 15 w/v % SDS-PAGE and the gels were stained with Coomassie brilliant blue. By comparing the bands with molecular weight markers, ApoE was identified.

CCCCCC1(CCCCC)Cc2c(cc(C(C)(C)C)c(O)c2C(C)(C)C)O1 [BO-653, 4,6-di-t-butyl-2,2-dipentyl-5-hydroxy-2,3-dihydrobenzofuran]
Cholesterol Reduction (%) Means ([1]; BO-653 3 μmol/L): 132.6% | Cholesterol Reduction (%) Means ([1]; BO-653 10 μmol/L): 145.9% | intracellular cholesterol content of macrophages ([1]; treatment with BO-653, 24 hours, result in words): decrease in intracellular cholesterol content | saccharified-ApoE expression in culture supernatant [2]: increased saccharified-ApoE expression | ApoE production in serum lipoprotein-containing fraction (C57BL/6J mice): increased ApoE production
